Consider 29 molecules from US9210931B2, “Pesticidal compositions and processes related thereto” (Dow AgroSciences LLC, priority 2010, dated 2015).

A word on the melting point: it is the temperature of the solid-liquid transition.

For series [1], the system named is Sweetpotato whitefly-crawler (Bemisia tabaci) (BEMITA). Put plainly: Insecticidal test for sweetpotato whitefly-crawler in foliar spray assay on cotton plants. It counts as in vivo. Conditions: 200 ppm foliar spray on cotton plants, graded after 8-9 days, Abbott-corrected % control, read-out: BEMITA % Ctrl @ 200 ppm. As to the method:
Cotton plants grown in 3-inch pots, with 1 small (3-5 cm) true leaf, were used as test substrate. The plants were placed in a room with whitefly adults. Adults were allowed to deposit eggs for 2-3 days. After a 2-3 day egg-laying period, plants were taken from the adult whitefly room. Adults were blown off leaves using a hand-held Devilbiss sprayer (23 psi). Plants with egg infestation (100-300 eggs per plant) were placed in a holding room for 5-6 days at 82° F. and 50% RH for egg hatch and crawler stage to develop. Four cotton plants were used for each treatment. Compounds (2 mg) were dissolved in 1 mL of acetone solvent, forming stock solutions of 2000 ppm. The stock solutions were diluted 10× with 0.025% Tween 20 in H2O to obtain a test solution at 200 ppm. A hand-held Devilbiss sprayer was used for spraying a solution to both sides of cotton leaf until runoff. Reference plants (solvent check) were sprayed with the diluent only. Treated plants were held in a holding room for 8-9 days at approximately 82° F. and 50% RH prior to grading. Evaluation was conducted by counting the number of live nymphs per plant under a microscope. Insecticidal activity was measured by using Abbott's correction formula and presented in “Table 4. Biological Data for GPA (MYZUPE) and sweetpotato whitefly-crawler (BEMITA)” (see column “BEMITA”): Corrected % Control=100*(X−Y)/X • where • X=No. of live nymphs on solvent check plants • Y=No. of live nymphs on treated plants Pesticidally Acceptable Acid Addition Salts, Salt Derivatives, Solvates, Ester Derivatives, Polymorphs, Isotopes and Radionuclides

Series [2] relates to Green Peach Aphid (Myzus persicae) (MYZUPE). The series is described as follows: Bioassay on green peach aphid (GPA), foliar spray on cabbage seedlings. In kind it is in vivo. The conditions noted are these: 72 h, 200 ppm foliar spray on cabbage seedlings, graded after three days, Abbott-corrected % control, read-out: MYZUPE % Ctrl @ 200 ppm. On the procedure:
Certain molecules disclosed in this document were tested against GPA using procedures described in the following example. In the reporting of the results, the “Table 3: GPA (MYZUPE) and sweetpotato whitefly-crawler (BEMITA) Rating Table” was used (See Table Section).
Cabbage seedlings grown in 3-inch pots, with 2-3 small (3-5 cm) true leaves, were used as test substrate. The seedlings were infested with 20-50 GPA (wingless adult and nymph stages) one day prior to chemical application. Four pots with individual seedlings were used for each treatment. Test compounds (2 mg) were dissolved in 2 mL of acetone/methanol (1:1) solvent, forming stock solutions of 1000 ppm test compound. The stock solutions were diluted 5× with 0.025% Tween 20 in H2O to obtain the solution at 200 ppm test compound. A hand-held aspirator-type sprayer was used for spraying a solution to both sides of […] leaves until runoff. Reference plants (solvent check) were sprayed with the diluent only containing 20% by volume of acetone/methanol (1:1) solvent. Treated plants were held in a holding room for three days at approximately 25° C. and ambient relative humidity (RH) prior to grading. Evaluation was conducted by counting the number of live aphids per plant under a microscope. Percent Control was measured by using Abbott's correction formula (W. S. Abbott, “A Method of Computing the Effectiveness of an Insecticide” J. Econ. Entomol. 18 (1925), pp. 265-267) as follows. Corrected % Control=100*(X−Y)/X • where • X=No. of live aphids on solvent check plants and • Y=No. of live aphids on treated plants
Biological Data for GPA (MYZUPE) and sweetpotato whitefly-crawler (BEMITA)” (See Table Section).

The structures appear in SMILES notation. A value given as a limit tells only on which side of the number the result lay.

For `Cc1nc(-c2cccnc2)c(C)n1NC(=O)OC(C)(C)C` [Compound 4, (2,5-Dimethyl-4-pyridin-3-yl-imidazol-1-yl)-carbamic acid tert-butyl ester], the figures for the inhibition at 200 ppm in series [1] and in series [2] were 0 to 80% and less than 0%, respectively.

As to `CCCCC(=O)N(CC)n1cc(-c2cccnc2)nc1C` [Compound 19], the inhibition at 200 ppm lay in the range of 80 to 100% in series [1] and 0 to 80% in series [2].

Regarding `CCN(C(=O)C(C)(C)C)n1cc(-c2cccnc2)nc1C` [Compound 13], the inhibition at 200 ppm in series [1] is 0 to 80%; in series [2], less than 0%.

For the molecule `Cc1nc(-c2cccnc2)cn1N(CC1CC1)C(=O)C(C)C` [Compound 20], the inhibition at 200 ppm in series [1] is less than 0%; in series [2], 0 to 80%.

In turn, `Cc1nc(-c2cccnc2)cn1N(C)C(=O)CC(F)(F)F` [Compound 8] registered a melting point of 130.9 to 131.5 °C. Moreover, the inhibition at 200 ppm in series [1] was 80 to 100%. For the same molecule, the inhibition at 200 ppm in series [2] was in the range of 0 to 80%.

`CCN(C(=O)C(C)C)n1cc(-c2cccnc2)nc1C` [Compound 17]: the inhibition at 200 ppm in series [1] and in series [2] was 0 to 80% each time.

For the molecule `Cc1nc(-c2cccnc2)cn1N(C)C(=O)C(C)C` [Compound 1], the melting point is 122 to 125 °C. For the same molecule, the inhibition at 200 ppm in series [1] was 0 to 80%. Also, the inhibition at 200 ppm in series [2] lay within 0 to 80%.

`CSCCC(=O)N(C)n1cc(-c2cccnc2)nc1C` [Compound 10]: the values for the inhibition at 200 ppm in series [1] and in series [2] were 80 to 100% and 0 to 80%, respectively.

With `CSCCC(=O)N(C)n1cc(-c2cncc(F)c2)nc1C` [Compound 23], the inhibition at 200 ppm in series [1] and in series [2] was 80 to 100% each time.

For the molecule `CCN(C(=O)CCSC)n1cc(-c2cncc(F)c2)nc1C` [Compound 25], the results for the inhibition at 200 ppm in series [1] and in series [2] were 80 to 100% and 0 to 80%, respectively.

In the case of `CC(=O)Nn1cc(-c2cccnc2)nc1Cl` [Compound 39, N-(2-Chloro-4-(pyridin-3-yl)-1H-imidazol-1-yl)acetamide], the melting point is 129 to 139 °C.

Turning to `CSC(C)CC(=O)N(C)n1cc(-c2cccnc2)nc1C` (centres unmarked) [Compound 2, N-Methyl-N-(2-methyl-4-pyridin-3-yl-imidazol-1-yl)-3-methylsulfanyl-butramide], the results for the inhibition at 200 ppm in series [1] and in series [2] were less than 0% and 0 to 80%, respectively.

`CCN(C(=O)C(C)C)n1cc(-c2cncc(F)c2)nc1C` [Compound 24]: the inhibition at 200 ppm in series [1] and in series [2] was 0 to 80% each time.

With `CC(=O)N(C)n1cc(-c2cccnc2)nc1C` [Compound 6], the values for the inhibition at 200 ppm in series [1] and in series [2] were 80 to 100% and 0 to 80%, respectively.

For `Cc1nc(-c2cccnc2)cn1N(C)C(=O)C(C)(C)C` [Compound 7], the inhibition at 200 ppm in series [1] lay within 80 to 100%; in series [2], 0 to 80%.

For the molecule `Cc1nc(-c2cncc(F)c2)cn1N(C)C(=O)C(C)C` [Compound 22], the inhibition at 200 ppm in series [1] lay within 80 to 100%; in series [2], 0 to 80%.

Take `CSCCC(=O)N(CC1CC1)n1cc(-c2cncc(F)c2)nc1C` [Compound 27]: the inhibition at 200 ppm was 80 to 100% in series [1] and 0 to 80% in series [2].

In the case of `CSCCC(=O)N(CC1CC1)n1cc(-c2cccnc2)nc1C` [Compound 21], the inhibition at 200 ppm fell in the range of 80 to 100% in series [1] and 0 to 80% in series [2].

Consider `Cc1nc(-c2cncc(F)c2)cn1N(CC1CC1)C(=O)C(C)C` [Compound 26], for which the inhibition at 200 ppm in series [1] and in series [2] was 0 to 80% each time.

Regarding `CCCCC(=O)N(C)n1cc(-c2cccnc2)nc1C` [Compound 9], the inhibition at 200 ppm in series [1] lay within 80 to 100%; in series [2] it was 0 to 80%.

Consider `CCN(C(=O)OC(C)(C)C)n1cc(-c2cccnc2)nc1Cl` [Compound 41, tert-Butyl (2-chloro-4-(pyridin-3-yl)-1H-imidazol-1-yl)(ethyl)carbamate], for which the inhibition at 200 ppm in series [1] was in the range of 80 to 100%; in series [2], 0 to 80%.

For `CCN(C(=O)CCSC)n1cc(-c2cccnc2)nc1C` [Compound 18], the inhibition at 200 ppm in series [1] and in series [2] was 80 to 100% throughout.

For the molecule `CC(=O)Nn1cc(-c2cccnc2)nc1C` [Compound 5], the inhibition at 200 ppm in series [1] and in series [2] was 80 to 100% in each case.

As for `Cc1nc(-c2cccnc2)cn1N(C)C(=O)OC(C)(C)C` [Compound 3, Methyl-(2-methyl-4-pyridin-3-yl-imidazol-1-yl)-carbamic acid tert-butyl ester], the inhibition at 200 ppm in series [1] and in series [2] was 0 to 80% throughout.

In the case of `Cc1nc(-c2cccnc2)cn1N(CC1CC1)C(=O)C(C)(C)C` [Compound 11], the inhibition at 200 ppm in series [1] fell in the range of 80 to 100%; in series [2], 0 to 80%.

As to `CSCC(C)(C)C(=O)N(C)n1cc(-c2cccnc2)nc1C` [Compound 16], the inhibition at 200 ppm in series [1] and in series [2] was less than 0% each time.

In the case of `Cc1nc(-c2cccnc2)cn1N(CC1CC1)C(=O)CC(F)(F)F` [Compound 12], the figures for the inhibition at 200 ppm in series [1] and in series [2] were 80 to 100% and less than 0%, respectively.

As for `CCCCC(=O)N(CC1CC1)n1cc(-c2cccnc2)nc1C` [Compound 15], the inhibition at 200 ppm in series [1] was 80 to 100%; in series [2] it was 0 to 80%.

For the molecule `CCN(C(=O)CC(F)(F)F)n1cc(-c2cccnc2)nc1C` [Compound 14], the inhibition at 200 ppm in series [1] and in series [2] was less than 0% in each case.
